Measurements from patent US20240255506A1, “PAIRED-CELL PROFILING SYSTEMS FOR HIGH-THROUGHPUT SCREENING SYNCYTIUM FORMATION” (priority 2023, published 2024).

Experiments:
[1] = system: SARS-COV-2; conditions: Vero E6 cells; previous study (ref. 25); cited from earlier work
[2] = system: SARS-COV-2-induced syncytium formation in Vero E6 cells; conditions: drug screen with more than 3,000 approved drugs (ref. 19); cited from earlier work
[3] = system: SARS-COV-2 spike-induced syncytium formation in A549-ACE2 cells; type: cell-based; conditions: A549-ACE2-GFP1-10 cells pre-incubated with drug 20 min in FBS-free medium, then mixed with 293T-spike-GFP11-mCherry cells, 24 h

SMILES	SARS-COV-2-induced cytotoxicity [1]	SARS-COV-2-induced syncytium formation [2]	cell-cell fusion process (syncytium formation) [3]
CC(CN1c2ccccc2Sc2ccccc21)N(C)C (stereo not shown) [promethazine]	reduces SARS-COV-2-induced cytotoxicity	some inhibitory effects	–
COCCCC/C(=N\OCCN)c1ccc(C(F)(F)F)cc1 [fluvoxamine]	–	some inhibitory effects	–
O=C1NC(=NS(=O)(=O)c2cccc3ccccc23)S/C1=C\c1ccc(Br)cc1 [Pitstop 2]	–	–	suppressed the cell-cell fusion process
